Measurements reported in patent publication US20120157471A1, “BENZIMIDAZOLE DERIVATIVES” (PFIZER INC., priority 2009, published 2012).

Assays:
[1] = target: T1, human Smo (amino acids 181-787) (Homo sapiens, UniProt Q99835); test: Smo radioligand competition binding assay (displacement of 3H-PF-03451358 from HEK293 membranes); settings: for inhibition at 0.05 µM: 0.05 μM test compound, displacement of 3H-PF-03451358, read-out: SMO % inh. @ 0.05 μM; for IC50: radioligand competition binding
T1 construct: expressed in transfected cells; membrane preparation
T1 sequence (Q99835 181-787): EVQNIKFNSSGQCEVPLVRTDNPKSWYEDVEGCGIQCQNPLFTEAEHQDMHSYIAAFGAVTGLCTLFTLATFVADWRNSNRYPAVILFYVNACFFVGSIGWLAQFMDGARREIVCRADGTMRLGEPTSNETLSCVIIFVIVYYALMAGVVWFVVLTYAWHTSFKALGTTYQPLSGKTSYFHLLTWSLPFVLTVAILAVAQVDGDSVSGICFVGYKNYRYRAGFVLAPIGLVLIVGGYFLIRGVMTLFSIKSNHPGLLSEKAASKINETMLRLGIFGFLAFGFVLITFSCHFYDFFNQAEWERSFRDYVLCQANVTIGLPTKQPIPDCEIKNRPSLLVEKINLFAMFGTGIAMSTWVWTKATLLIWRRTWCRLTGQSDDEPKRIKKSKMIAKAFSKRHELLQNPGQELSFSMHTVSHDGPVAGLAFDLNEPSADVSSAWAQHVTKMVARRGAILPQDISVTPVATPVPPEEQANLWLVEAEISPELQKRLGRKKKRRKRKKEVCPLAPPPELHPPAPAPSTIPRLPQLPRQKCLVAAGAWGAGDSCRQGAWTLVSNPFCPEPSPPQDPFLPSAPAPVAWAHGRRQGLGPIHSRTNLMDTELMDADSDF
Procedure, shortened: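 Membranes (40 μg protein/well) from HEK293 expressing murine Igk-leader-fused Smo 181-787 incubated 2 h at room temperature with 3 nM 3H-PF-03451358 in Tris pH 7.5/NaCl/MgCl2/EDTA/BSA buffer; filter-bound counts by scintillation. Nonspecific binding with 30 μM cold PF-03451358; IC50 from four-parameter fit of % inhibition.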

Gli-Luc/MEF cells (Smo) = test: Gli-Luc/MEF assay (Shh-stimulated luciferase reporter under the Gli response element); assay type: cell-based, mouse; settings: Mus musculus, MEF, 48 h
Procedure, shortened: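 Mouse Gli-Luc/MEF cells dosed with compound (3-fold series, […]) plus 2 μg/mL recombinant mouse Shh, then incubated 48 h at 37° C, 5% CO2. Bright-Glo luminescence read; IC50 calculated from inhibition of Shh-stimulated luciferase.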

SMILES	inhibition at 0.05 µM [1] [%]	IC50 [1] [nM]	IC50 (Gli-Luc/MEF cells (Smo)) [nM]
COC(=O)N1CCN(c2cc(-c3nc4ccccc4n3C)ccn2)CC1 [Example A-141, methyl 4-[4-(1-methyl-1H-benzimidazol-2-yl)pyridin-2-yl]piperazine-1-carboxylate]	96	34	27
Cn1c(-c2cc(N3CCOCC(O)C3)ncc2Cl)nc2ccccc21 (stereo not drawn) [Example A-53, 4-[5-chloro-4-(1-methyl-1H-benzimidazol-2-yl)pyridin-2-yl]-1,4-oxazepan-6-yl]	98	12	9
CC(=O)N1CCN(c2cc(-c3nc4ccccc4n3C)c(C)cn2)CC1 [Example E-4, 2-[2-(4-acetylpiperazin-1-yl)-5-methylpyridin-4-yl]-1-methyl-1H-benzimidazole]	92	61	52.5
Cn1c(-c2cccc(N3CCN(S(C)(=O)=O)CC3)n2)nc2ccccc21 [Example B-7, 1-methyl-2-{6-[4-(methylsulfonyl)piperazin-1-yl]pyridin-2-yl}-1H-benzimidazole]	78	97	189
COCC(=O)N1CCN(c2ncc(Cl)c(-c3nc4ccccc4n3C)n2)CC1 [Example C-16, 2-{5-chloro-2-[4-(methoxyacetyl)piperazin-1-yl]pyrimidin-4-yl}-1-methyl-1H-benzimidazole]	99	14	12.7
Cn1c(-c2cc(N3CCC(CO)(CCO)C3)ncc2Cl)nc2ccccc21 (stereo not drawn) [Example A-85, 2-{1-[5-chloro-4-(1-methyl-1H-benzimidazol-2-yl)pyridin-2-yl]-3-(hydroxymethyl)pyrrolidin-3-yl}ethanol]	90	17	7
CC(=O)N1CCN(c2cc(-c3nc4ccccc4n3C)c(Cl)cn2)CC1 [Example A-1, 2-[2-(4-acetylpiperazin-1-yl)-5-chloropyridin-4-yl]-1-methyl-1H-benzimidazole]	90	15.2	4
Cc1nnc(C2CCN(c3cc(-c4nc5ccccc5n4C)c(Cl)cn3)CC2)o1 [Example A-97, 2-{5-chloro-2-[4-(5-methyl-1,3,4-oxadiazol-2-yl)piperidin-1-yl]pyridin-4-yl}-1-methyl-1H-benzimidazole]	85	32	25
CN(C1CN(c2cc(-c3nc4ccccc4n3C)c(Cl)cn2)C1)S(C)(=O)=O [Example A-149, N-{1-[5-chloro-4-(1-methyl-1H-benzimidazol-2-yl)pyridin-2-yl]azetidin-3-yl}-N-methylmethanesulfonamide]	95	14	8
CNC(=O)N1CCN(c2ncc(Cl)c(-c3nc4ccccc4n3C)n2)CC1 [Example C-7, 4-[5-Chloro-4-(1-methyl-1H-benzimidazol-2-yl)pyrimidin-2-yl]-N-methylpiperazine-1-carboxamide]	95	14	18
Cn1c(-c2cc(N3CCC(NS(C)(=O)=O)CC3)ncc2Cl)nc2cccnc21 [Example A-36, N-{1-[5-chloro-4-(3-methyl-3H-imidazo[4,5-b]pyridin-2-yl)pyridin-2-yl]piperidin-4-yl}methanesulfonamide]	93	23	12
Cc1noc(CC2CN(c3cc(-c4nc5ccccc5n4C)c(Cl)cn3)CCO2)n1 (stereo not drawn) [Example A-45, 2-(5-chloro-2-{2-[(3-methyl-1,2,4-oxadiazol-5-yl)methyl]morpholin-4-yl}pyridin-4-yl)-1-methyl-1H-benzimidazole]	102	13	9
Cn1c(-c2cc(N3CCN(c4ccc(C#N)cn4)CC3)ncc2Cl)nc2ccccc21 [Example A-189, 6-{4-[5-chloro-4-(1-methyl-1H-benzimidazol-2-yl)pyridin-2-yl]piperazin-1-yl}nicotinonitrile]	99	11	0.79
Cn1c(-c2ccnc(N3CCS(=O)(=O)CC3)c2)nc2ccccc21 [Example A-11, 2-[2-(1,1-dioxidothiomorpholin-4-yl)pyridin-4-yl]-1-methyl-1H-benzimidazole]	52	486	275
Cn1c(-c2cc(N3CCCn4cnc(CO)c4C3)ncc2Cl)nc2ccccc21 [Example A-110, {8-[5-chloro-4-(1-methyl-1H-benzimidazol-2-yl)pyridin-2-yl]-6,7,8,9-tetrahydro-5H-imidazo[1,5-a][1,4]diazepin-1-yl}methanol]	74	161	93
CC(=O)N1CCN(c2ncc(Cl)c(-c3nc4ccccc4n3C)n2)CC1 [Example C-1, 2-[2-(4-Acetylpiperazin-1-yl)-5-chloropyrimidin-4-yl]-1-methyl-1H-benzimidazole]	96	12	7
CNC(=O)N1CCCN(c2cc(-c3nc4ccccc4n3C)ccn2)CC1 [Example A-155, N-methyl-4-[4-(1-methyl-1H-benzimidazol-2-yl)pyridin-2-yl]-1,4-diazepane-1-carboxamide]	97	22	12
CC(=O)NC1CCN(c2ccc(Cl)c(-c3nc4ccccc4n3C)n2)CC1 [Example B-11, N-{1-[5-chloro-6-(1-methyl-1H-benzimidazol-2-yl)pyridin-2-yl]piperidin-4-yl}acetamide]	98	16	7
COC(=O)N1CCN(c2cccc(-c3nc4ccccc4n3C)n2)CC1 [Example B-9, methyl 4-[6-(1-methyl-1H-benzimidazol-2-yl)pyridin-2-yl]piperazine-1-carboxylate]	82	122	143
CNS(=O)(=O)C1CCN(c2cc(-c3nc4ccccc4n3C)c(Cl)cn2)C1 (stereo not drawn) [Example A-104, 1-[5-chloro-4-(1-methyl-1H-benzimidazol-2-yl)pyridin-2-yl]-N-methylpyrrolidine-3-sulfonamide]	80	37	23
Cn1c(-c2nc(N3CCC(NS(C)(=O)=O)CC3)ncc2Cl)nc2ccccc21 [Example C-9, N-{1-[5-chloro-4-(1-methyl-1H-benzimidazol-2-yl)pyrimidin-2-yl]piperidin-4-yl}methanesulfonamide]	100	6	2
Cn1c(-c2cc(N3CCNCC3)ncc2Cl)nc2ccccc21 [Example A-23, 2-(5-chloro-2-piperazin-1-ylpyridin-4-yl)-1-methyl-1H-benzimidazole]	88	56	31
Cn1c(-c2ccnc(N3CCC(S(C)(=O)=O)CC3)c2)nc2ccccc21 [Example A-10, 1-methyl-2-{2-[4-(methylsulfonyl)piperidin-1-yl]pyridin-4-yl}-1H-benzimidazole]	80	95	38
CN(CC(N)=O)c1cc(-c2nc3ccccc3n2C)c(Cl)cn1 [Example A-186, N~2~-[5-chloro-4-(1-methyl-1H-benzimidazol-2-yl)pyridin-2-yl]-N~2~-methylglycinamide]	78	97	65
Cn1c(-c2cc(N3CCOCC(Cc4cncnc4)C3)ncc2Cl)nc2ccccc21 (stereo not drawn) [Example A-46, 2-{5-chloro-2-[6-(pyrimidin-5-ylmethyl)-1,4-oxazepan-4-yl]pyridin-4-yl}-1-methyl-1H-benzimidazole]	101	14	9
Cc1noc(C2CN(c3cc(-c4nc5ccccc5n4C)c(Cl)cn3)CCO2)n1 (stereo not drawn) [Example A-64, 2-{5-chloro-2-[2-(3-methyl-1,2,4-oxadiazol-5-yl)morpholin-4-yl]pyridin-4-yl}-1-methyl-1H-benzimidazole]	95	28	7
